According to US8546443B2, “Benzylic oxindole pyrimidines” (Boehringer Ingelheim International GmbH, priority 2010, dated 2013):

Columns and labels:
[1] = target: T1, cytoplasmic kinase domain of human IGF-1R (IGF-1R-GST) (Homo sapiens, UniProt P08069); assay: Insulin-like growth factor-1 receptor (IGF-1R) kinase assay (DELFIA); assay type: biochemical; conditions: IGF-1R-GST kinase activity, read-out: IGF1R IC50
T1 construct: cytoplasmic kinase domain of human IGF-1R (amino acids 964-1370); GST (glutathione-S-transferase); made in house; host or cells: High Five insect cells (Invitrogen)
How it was run: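 GST-tagged IGF-1R cytoplasmic kinase domain phosphorylates pEY with biotinylated pEY for 40 min at RT; EDTA stop. Product captured on streptavidin, detected with europium anti-phosphotyrosine antibody by DELFIA time-resolved fluorescence; IC50 from inhibition curves.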

[2] = test system: TC-71 (Ewing's sarcoma) cells; assay: Cell proliferation assay, TC-71 (Alamar Blue); assay type: cell-based; conditions: 72 h with compound, EC50 ranges as class symbols
Description: Cell Proliferation Assays
Compounds were tested for their anti-proliferative effects in the TC-71 (Ewing's sarcoma) and HCT 116 (colorectal carcinoma) cancer cell lines in vitro. Published scientific data has described that interference with the Insulin-like Growth Factor-1 Receptor (IGF-1R) signaling pathway reduces the proliferation of TC-71 cells. Therefore TC-71 cells served as a positive control cell line for monitoring the activity of compounds against IGF-1R-mediated cell proliferation. […] Therefore the HCT 116 cell line served as a negative control.
2000 TC-71 cells or 1000 HCT 116 cells were seeded per well in 180 μL IMDM+10% foetal calf serum (FCS)+ penicillin/streptomycin into 96-well microtitre plates. The plates were placed in a cell culture incubator (37° C. in a humidified atmosphere of […]/5 CO2) overnight. The following day, serial dilutions of compounds, prepared in duplicates, were transferred onto the cell layers (controls without compound). The cells were cultivated for a further 72 h in the cell culture incubator. 20 μL of Alamar Blue™ (Serotec Ltd, Düsseldorf, Germany) was added to each well and the plates incubated for 7 h in the cell culture incubator. Fluorescence (extinction wavelength of 544 nm and emission at 590 nm) was then measured and the normalized data fitted by iterative calculation with a sigmoidal curve analysis program (Graph Pad Prism) with a variable Hill slope to determine the IC50 values.

T1 sequence (P08069 964-1367 limits assumed): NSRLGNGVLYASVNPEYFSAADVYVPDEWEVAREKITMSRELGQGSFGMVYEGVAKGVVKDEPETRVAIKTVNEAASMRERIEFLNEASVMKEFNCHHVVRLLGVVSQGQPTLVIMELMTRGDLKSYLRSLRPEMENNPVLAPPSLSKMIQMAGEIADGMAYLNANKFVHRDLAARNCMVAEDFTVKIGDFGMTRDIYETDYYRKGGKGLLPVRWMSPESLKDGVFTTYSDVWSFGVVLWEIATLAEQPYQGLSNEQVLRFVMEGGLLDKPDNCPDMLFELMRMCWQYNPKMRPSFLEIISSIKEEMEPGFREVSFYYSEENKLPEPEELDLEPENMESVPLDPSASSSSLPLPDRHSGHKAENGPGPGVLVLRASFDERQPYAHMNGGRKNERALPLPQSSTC

SMILES | IC50 [1] [nM] | EC50 [2] [nM]
CNC(=O)CN1CCCC(c2ccc(Nc3ncc(Cl)c(NCc4cccc5c4C(C)(C)C(=O)N5)n3)c(C)c2)C1 (racemic) [Example I-383] | 2 | 50 to 250
Cc1cc(C2CCN(CC(O)C(F)(F)F)CC2)ccc1Nc1ncc(Cl)c(NCc2cccc3c2C(C)(C)C(=O)N3)n1 (centres unmarked) [Example I-326] | 2 | 50 to 250
COc1cc(N2CCN(CC(C)(C)O)CC2)ccc1Nc1ncc(Cl)c(NCc2cccc3c2C(C)(C)C(=O)N3)n1 [Example I-335] | 3 | < 50
CC(C)(O)CN1CCC(c2ccc(Nc3ncc(Cl)c(NCc4cccc5c4C(C)(C)C(=O)N5)n3)c(OC(F)(F)F)c2)CC1 [Example I-340] | 11 | 50 to 250
CNC1(C(=O)N2CCC(c3ccc(Nc4ncc(Cl)c(NCc5cccc6c5C(C)(C)C(=O)N6)n4)c(C)c3)CC2)CC1 [Example I-295] | 4 | 50 to 250
COc1cc(C2CCN(CC(C)(C)O)CC2)ccc1Nc1ncc(C(F)(F)F)c(NCc2cccc3c2C(C)(C)C(=O)N3)n1 [Example I-302] | 0.6 | < 50
CCc1cc(C2CCN(CCOC)CC2)ccc1Nc1ncc(Cl)c(NCc2cccc3c2C(C)(C)C(=O)N3)n1 [Example I-385] | 4 | 50 to 250
COc1cc(C2CCCN(CC(C)(C)O)C2)ccc1Nc1ncc(Br)c(NCc2cccc3c2C(C)(C)C(=O)N3)n1 (racemic) [Example I-322] | 0.5 | < 50
COCCN1CCN(c2ccc(Nc3ncc(Cl)c(NCc4cccc5c4C(C)(C)C(=O)N5)n3)c(OC)c2)CC1 [Example I-386] | 3 | < 50
CNC(=O)CN1CCC(c2ccc(Nc3ncc(Cl)c(NCc4cccc5c4C(C)(C)C(=O)N5)n3)c(C)c2)CC1 [Example I-370] |  | < 50
CN(C)CC(=O)N1CCC(n2cc(Nc3ncc(Cl)c(NCc4cccc5c4C(C)(C)C(=O)N5)n3)cn2)CC1 [Example I-66] | 6 | 250 to 3000
Cc1cc(C2CCCN(CC(O)C(F)(F)F)C2)ccc1Nc1ncc(Br)c(NCc2cccc3c2C(C)(C)C(=O)N3)n1 (racemic) [Example I-316] | 2 | 50 to 250
Cc1cc(C2CCN(C(N)=O)CC2)ccc1Nc1ncc(Cl)c(NCc2cccc3c2C(C)(C)C(=O)N3)n1 [Example I-294] | 7 | 250 to 3000
Cc1cc(N2CCN(C)CC2)ccc1Nc1ncc(C(F)(F)F)c(NCc2cccc3c2C(C)(C)C(=O)N3)n1 [Example I-307] | 1 | < 50
Cc1cc(C2CCN(CCS(C)(=O)=O)CC2)ccc1Nc1ncc(Cl)c(NCc2cccc3c2C(C)(C)C(=O)N3)n1 [Example I-216] | 2 | 50 to 250
CC(C)(O)CN1CCC(c2ccc(Nc3ncc(Br)c(NCc4cccc5c4C(C)(C)C(=O)N5)n3)cc2)CC1 [Example I-210] | 0.47 | < 50
COCCN1CCCC(c2ccc(Nc3ncc(C(F)(F)F)c(NCc4cccc5c4C(C)(C)C(=O)N5)n3)c(OC)c2)C1 (racemic) [Example I-350] | 0.5 | < 50
COc1cc(C2CCN(CC(C)(C)O)CC2)ccc1Nc1ncc(Br)c(NCc2cccc3c2C(C)(C)C(=O)N3)n1 [Example I-323] | 0.9 | < 50
CCc1cc(C2CCCN(CCOC)C2)ccc1Nc1ncc(Br)c(NCc2cccc3c2C(C)(C)C(=O)N3)n1 (racemic) [Example I-368] | 2 | < 50
CC1(C)C(=O)Nc2cccc(CNc3nc(Nc4ccc(C5CCN(CCCF)CC5)cc4)ncc3Br)c21 [Example I-212] | 3 | 50 to 250
Cc1cc(C2CCN(CC(C)(C)O)CC2)ccc1Nc1ncc(Cl)c(NCc2cccc3c2C(C)(C)C(=O)N3)n1 [Example I-377] | 0.9 | < 50
Cc1cc(C2CCN(CC(C)(C)O)CC2)ccc1Nc1ncc(C(F)(F)F)c(NCc2cccc3c2C(C)(C)C(=O)N3)n1 [Example I-309] | 1 | < 50
COCCN1CCCC(c2ccc(Nc3ncc(Br)c(NCc4cccc5c4C(C)(C)C(=O)N5)n3)c(C)c2)C1 (racemic) [Example I-359] | 0.5 | < 50
Cc1cc(C2CCCN(CCO)C2)ccc1Nc1ncc(Br)c(NCc2cccc3c2C(C)(C)C(=O)N3)n1 (racemic) [Example I-364] | 0.6 | < 50
Cc1cc(C2CCN(S(C)(=O)=O)CC2)ccc1Nc1ncc(Cl)c(NCc2cccc3c2C(C)(C)C(=O)N3)n1 [Example I-203] | 14 | 250 to 3000

SMILES | IC50 [1] [nM] | EC50 [2] [nM]
Cc1cc(C2CCN(CCO)CC2)ccc1Nc1ncc(Br)c(NCc2cccc3c2C(C)(C)C(=O)N3)n1 [Example I-214] | 0.62 | < 50
CC(C)(O)C(=O)N1CCC(c2ccc(Nc3ncc(Br)c(NCc4cccc5c4C(C)(C)C(=O)N5)n3)cc2)CC1 [Example I-54] | 7 | 50 to 250
COc1cc(C2CCN(C(=O)CO)CC2)ccc1Nc1ncc(Cl)c(NCc2cccc3c2C(C)(C)C(=O)N3)n1 [Example I-296] | 1 | 50 to 250
CCc1cc(C2CCN(CC(C)(C)O)CC2)ccc1Nc1ncc(C(F)(F)F)c(NCc2cccc3c2C(C)(C)C(=O)N3)n1 [Example I-314] | 5 | 50 to 250
Cc1cc(N2CCN(CC(C)(C)O)CC2)ccc1Nc1ncc(Cl)c(NCc2cccc3c2C(C)(C)C(=O)N3)n1 [Example I-336] | 4 | 50 to 250
COc1cc(C2CCN(C(=O)C(C)(C)O)CC2)ccc1Nc1ncc(Cl)c(NCc2cccc3c2C(C)(C)C(=O)N3)n1 [Example I-300] | 11 | < 50
CC(C)(O)CN1CCC(c2ccc(Nc3ncc(C(F)(F)F)c(NCc4cccc5c4C(C)(C)C(=O)N5)n3)c(OC(F)F)c2)CC1 [Example I-310] | 5 | 50 to 250
COCCN1CCCC(c2ccc(Nc3ncc(Cl)c(NCc4cccc5c4C(C)(C)C(=O)N5)n3)c(OC)c2)C1 (racemic) [Example I-371] | 0.8 | < 50
Cc1c(Nc2ncc(C(F)(F)F)c(NCc3cccc4c3C(C)(C)C(=O)N4)n2)ccc(C2CCN(CC(C)(C)O)CC2)c1C [Example I-313] | 0.5 | < 50
COc1cc(C2CCN(CC(C)(C)O)CC2)ccc1Nc1ncc(Cl)c(NCc2cccc3c2C(C)(C)C(=O)N3)n1 [Example I-331] | 1 | < 50
Cc1cc(C2CCN(C(=O)CO)CC2)ccc1Nc1ncc(Cl)c(NCc2cccc3c2C(C)(C)C(=O)N3)n1 [Example I-298] | 7 | 50 to 250
COc1cc(C2CCCN(CCO)C2)ccc1Nc1ncc(Cl)c(NCc2cccc3c2C(C)(C)C(=O)N3)n1 (racemic) [Example I-372] | 0.8 | < 50
CC1(C)C(=O)Nc2cccc(CNc3nc(Nc4ccc(C5CCN(CCO)CC5)cc4)ncc3Br)c21 [Example I-209] | 1 | 50 to 250
Cc1cc(C2CCCN(CCO)C2)ccc1Nc1ncc(Cl)c(NCc2cccc3c2C(C)(C)C(=O)N3)n1 (racemic) [Example I-382] | 1 | < 50
Cc1cc(C2CCCN(CC(O)C(F)(F)F)C2)ccc1Nc1ncc(Cl)c(NCc2cccc3c2C(C)(C)C(=O)N3)n1 (racemic) [Example I-329] | 2 | < 50
COc1cc(N2CCNCC2)ccc1Nc1ncc(C(F)(F)F)c(NCc2cccc3c2C(C)(C)C(=O)N3)n1 [Example I-31] | 0.7 | < 50
CC1(C)C(=O)Nc2cccc(CNc3nc(Nc4ccc(C5CCN(C(=O)C6CCN6)CC5)cc4)ncc3Br)c21 (centres unmarked) [Example I-56] | 2 | 250 to 3000
COCCN1CCN(c2ccc(Nc3ncc(Br)c(NCc4cccc5c4C(C)(C)C(=O)N5)n3)c(OC)c2)CC1 [Example I-369] | 2 | < 50
Cc1cc(N2CCN(C)CC2)ccc1Nc1ncc(Cl)c(NCc2cccc3c2C(C)(C)C(=O)N3)n1 [Example I-330] | 3 | < 50
COCCN1CCC[C@@H](c2ccc(Nc3ncc(Br)c(NCc4cccc5c4C(C)(C)C(=O)N5)n3)c(C)c2)C1 [Example I-362] | 0.3 | < 50
COCCN1CCCC(c2ccc(Nc3ncc(Br)c(NCc4cccc5c4C(C)(C)C(=O)N5)n3)cc2)C1 (racemic) [Example I-357] | 0.7 | 50 to 250
Cc1cc(Nc2ncc(Br)c(NCc3cccc4c3C(C)(C)C(=O)N4)n2)ccc1C1CCN(CC(C)(C)O)CC1 [Example I-324] | 0.1 | < 50
COc1cc(C2CCCN(CCO)C2)ccc1Nc1ncc(Br)c(NCc2cccc3c2C(C)(C)C(=O)N3)n1 (racemic) [Example I-361] |  | < 50
Cc1cc(C2CCN(CC(C)(C)O)CC2)c(C)cc1Nc1ncc(Cl)c(NCc2cccc3c2C(C)(C)C(=O)N3)n1 [Example I-338] |  | 250 to 3000
